Measured values reported in the NIST ThermoML archive (doi:10.1021/je400149j).

Test: relative permittivity at zero frequency (dimensionless); xn = mol fraction of the nth substance listed
Details: 101 kPa, Liquid, impedance/gain phase analyzer

C[S+](C)[O-] [dimethyl sulfoxide] + O
relative permittivity at zero frequency
Details | x1 = 0.1536 | x1 = 0.2496 | x1 = 0.3505 | x1 = 0.4975 | x1 = 0.5991 | x1 = 0.7039 | x1 = 0.7882 | x1 = 0.8297 | x1 = 0.9159 | x1 = 1
253.15 K | 91.94 | 88.58 | 84.04 | 76.79 | – | – | – | – | – | –
255.15 K | 91.25 | 87.74 | 83.36 | 76.23 | – | – | – | – | – | –
257.15 K | 90.45 | 86.97 | 82.67 | 75.63 | – | – | – | – | – | –
259.15 K | 89.61 | 86.2 | 82.03 | 75.1 | – | – | – | – | – | –
261.15 K | 88.8 | 85.42 | 81.31 | 74.51 | 69.37 | – | – | – | – | –
263.15 K | 87.94 | 84.64 | 80.65 | 73.97 | 68.84 | – | – | – | – | –
265.15 K | 87.11 | 83.94 | 79.97 | 73.39 | 68.38 | – | – | – | – | –
267.15 K | 86.34 | 83.09 | 79.33 | 72.86 | 67.89 | – | – | – | – | –
269.15 K | 85.49 | 82.43 | 78.71 | 72.29 | 67.37 | – | – | – | – | –
271.15 K | 84.69 | 81.68 | 78.01 | 71.63 | 66.92 | – | – | – | – | –
273.15 K | 83.99 | 80.92 | 77.39 | 71.06 | 66.4 | 60.97 | – | – | – | –
275.15 K | 83.16 | 80.24 | 76.74 | 70.47 | 65.94 | 60.58 | – | – | – | –
277.15 K | 82.38 | 79.52 | 75.92 | 69.92 | 65.48 | 60.19 | – | – | – | –
279.15 K | 81.7 | 78.75 | 75.25 | 69.35 | 65 | 59.84 | 56.06 | – | – | –
281.15 K | 80.98 | 78.14 | 74.63 | 68.84 | 64.52 | 59.46 | 55.83 | – | – | –
283.15 K | 80.31 | 77.42 | 74.04 | 68.36 | 64.1 | 59.05 | 55.54 | 53.95 | – | –
285.15 K | 79.54 | 76.72 | 73.46 | 67.82 | 63.61 | 58.67 | 55.2 | 53.67 | – | –
287.15 K | 78.93 | 76.14 | 72.79 | 67.3 | 63.09 | 58.31 | 54.84 | 53.38 | 50.53 | –
289.15 K | 78.19 | 75.4 | 72.06 | 66.67 | 62.58 | 57.91 | 54.52 | 53.01 | 50.3 | –
291.15 K | 77.43 | 74.76 | 71.47 | 66.13 | 62.13 | 57.57 | 54.21 | 52.68 | 50.06 | 47.15
293.15 K | 76.72 | 74.13 | 70.84 | 65.63 | 61.65 | 57.17 | 53.82 | 52.36 | 49.79 | 47.09
295.15 K | 75.97 | 73.52 | 70.29 | 65.13 | 61.23 | 56.81 | 53.45 | 52.06 | 49.53 | 46.84
297.15 K | 75.33 | 72.88 | 69.71 | 64.67 | 60.76 | 56.37 | 53.1 | 51.72 | 49.27 | 46.64
299.15 K | 74.63 | 72.11 | 69 | 64.12 | 60.32 | 55.99 | 52.77 | 51.42 | 49 | 46.39
301.15 K | 74.02 | 71.48 | 68.41 | 63.63 | 59.83 | 55.59 | 52.41 | 51 | 48.75 | 46.18
303.15 K | 73.34 | 70.83 | 67.88 | 63.07 | 59.38 | 55.21 | 52.03 | 50.7 | 48.48 | 45.94
305.15 K | 72.66 | 70.21 | 67.29 | 62.57 | 58.95 | 54.82 | 51.63 | 50.38 | 48.21 | 45.63
307.15 K | 72.02 | 69.63 | 66.63 | 62.12 | 58.51 | 54.47 | 51.27 | 50.04 | 47.94 | 45.39
309.15 K | 71.28 | 69.05 | 66.07 | 61.59 | 58.1 | 54.05 | 50.9 | 49.68 | 47.64 | 45.14
311.15 K | 70.73 | 68.39 | 65.52 | 61.06 | 57.64 | 53.66 | 50.51 | 49.39 | 47.35 | 44.88
313.15 K | 70.05 | 67.84 | 64.91 | 60.58 | 57.16 | 53.28 | 50.11 | 49.02 | 47.09 | 44.64
315.15 K | 69.51 | 67.3 | 64.33 | 60.13 | 56.72 | 52.92 | 49.73 | 48.67 | 46.85 | 44.34
317.15 K | 68.91 | 66.79 | 63.77 | 59.56 | 56.28 | 52.56 | 49.39 | 48.36 | 46.53 | 44.11
319.15 K | 68.26 | 66.18 | 63.12 | 59.12 | 55.79 | 52.15 | 49.09 | 48 | 46.26 | 43.87
321.15 K | 67.66 | 65.6 | 62.59 | 58.67 | 55.33 | 51.79 | 48.75 | 47.69 | 45.99 | 43.58
323.15 K | 67.01 | 65.07 | 62.03 | 58.11 | 54.85 | 51.43 | 48.37 | 47.33 | 45.72 | 43.31
325.15 K | 66.49 | 64.43 | 61.49 | 57.67 | 54.36 | 51.04 | 48.03 | 47 | 45.4 | 43.07
327.15 K | 65.83 | 63.89 | 60.98 | 57.18 | 54 | 50.64 | 47.64 | 46.66 | 45.12 | 42.78
329.15 K | 65.27 | 63.35 | 60.4 | 56.69 | 53.52 | 50.25 | 47.27 | 46.35 | 44.82 | 42.56
331.15 K | 64.72 | 62.78 | 59.87 | 56.23 | 53.03 | 49.87 | 46.94 | 45.99 | 44.53 | 42.27
333.15 K | 64.08 | 62.18 | 59.28 | 55.72 | 52.61 | 49.49 | 46.57 | 45.67 | 44.23 | 42
